Patent US20120129939A1, “POLYAMINE INHIBITORS FOR THE TREATMENT AND PREVENTION OF PARKINSON'S DISEASE” (priority 2009, published 2012)
“Also recorded” adds a separate entry of the source.

Legend:
[1] = tested on: yeast expressing α-synuclein (wildtype and A53T); conditions: YPGal medium, spermine 0, 0.2, 0.4 mM; Syn-WT and Syn-A53T versus empty vector strain
α-synuclein = α-synuclein (Homo sapiens, UniProt P37840); conditions: in vitro system, exogenously added (Antony 2003); cited from earlier work
SAT1 = SAT1 (Homo sapiens, UniProt P21673); conditions: literature; cited from earlier work
[2] = tested on: transgenic mice (Line 61) expressing wildtype human α-synuclein; assay: α-Synuclein transgenic mice, intraventricular infusion, immunohistochemical analysis of α-synuclein accumulation and neurodegeneration; format: in vivo
Description: α-Synuclein transgenic mice and infusion: For this study, heterozygous transgenic (tg) mice (Line 61) expressing wildtype human α-synuclein (hα-syn) under the regulatory control of the mThy1 promoter were used (Rockenstein, E. et al. 2002). These animals were selected because they display abnormal accumulation of detergent-insoluble hα-syn and develop hα-syn-immunoreactive inclusion like structures in the basal ganglia, cortex, and limbic system (Rockentein, E. et al. 2002). Furthermore, these animals also display neurodegenerative and motor deficits that mimic certain aspects of PD and Dementia with Lewy bodies (Fleming, S. et al. 2004). Infusions were performed as previously described (Veinbergs, I. et al. 2001). In order to evaluate the effects of the polyamine pathway, hα-syn tg mice (10-11 months old) received intraventricular infusions with a cannula implanted into the skull and connected to osmotic minipumps of either vehicle, Beneril, or DENSPM. A total of 15 hu-syn tg mice (n=5 per group) were used for these experiments. Mice were treated for six weeks; the compounds were dissolved in 0.9% NaCl at a concentration of 62 μM for DENSPM and 30 μM for Berenil at a pH of 7.2. Then, 200 μL of these solutions were filled into the osmotic minipump (Alzet) ensuring constant delivery ([…]). The minipump was implanted subcutaneously on the back under light anesthesia. An additional group of control non tg (n=5) mice were implanted with minipumps filled with vehicle only. All procedures were completed under the specifications set forth by the Institutional Animal Care and Use Committee.
Brains were removed and divided sagittally. One hemibrain was postfixed in phosphate-buffered 4% paraformaldehyde, pH 7.4, at 4° C. for 48 h and sectioned at 40 μm with a Vibratome 2000 (Leica) and placed in cryosolution, whereas the other hemibrain was snap frozen and stored at −70° C. for further analysis. Sections were first washed 3×5 minutes each in PBS. They were then pretreated with 1% Triton-X, 3% hydrogen peroxide in PBS for 15 minutes, washed again 3×5 min in PBS and blocked in 10% serum matching the animal the secondary antibody was raised in for 1 hour and then washed in PBS. Sections were then placed in primary antibody: mouse anti-TH, rabbit anti-(h) α-syn, mouse anti-MAP2 (Chemicon, (1:500)) overnight in 4° C. Sections were washed 3×5 min in PBS and then placed in biotynilated secondary antibody (1:100) (Vector Laboratories) for 2 hours. After washing again 3 times in PBS, sections were placed in 20% […] (DAB) (Vector Laboratories) for 20 seconds. The reaction with DAB was halted by immersing the sections in double distilled water. Sections were then mounted, dried and coverslipped with Entillin (Fisher Scientific). Sections for fluorescent immunohistochemistry were treated with mouse monoclonal anti-microtuble-associated protein 2 (MAP2, 1:50, Roche Molecular Biochemicals) primary antibody. This antibody was then detected with the fluorescein isothiocyanate (FITC)-conjugated anti-mouse secondary antibody (Vector Laboratories). Coverslips were air-dried overnight, mounted on slides with anti-fading media (Vectashield, Vector Laboratories), and imaged with the LSCM (MRC 1024, Bio-Rad). The immunolabeled blind-coded sections were imaged by LSCM (MRC1024, Bio-Rad) and analyzed with the Image 1.43 program (NIH), as previously described (Fleming, S. et al. 2004).

[3] = infusion via osmotic minipumps six weeks, compared to syntgPBS

SAT1, sequence (P21673 whole entry, the tested form may be a part): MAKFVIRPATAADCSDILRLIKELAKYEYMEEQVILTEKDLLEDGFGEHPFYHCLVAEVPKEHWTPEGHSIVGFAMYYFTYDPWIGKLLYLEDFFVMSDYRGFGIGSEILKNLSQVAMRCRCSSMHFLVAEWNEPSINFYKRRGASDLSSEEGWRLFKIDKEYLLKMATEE

SMILES	toxicity of exogenous spermine (growth curves, OD600) [1]	aggregation of α-synuclein (α-synuclein)	SAT1 activity (SAT1)	overall α-synuclein pathology / PD phenotype ([2]; infusion via osmotic minipumps six weeks)	neuronal accumulation of α-synuclein in the basal ganglia (mean α-synuclein cell pixel intensity, caudo-putamen) ([2]; infusion via osmotic minipumps six weeks, DENSPM 62 μM, Berenil 30 μM, compared to transgenic mice treated with PBS)	dendritic complexity in the basal ganglia as detected by MAP2 (% of neuropil covered by MAP2 immunoreactive dendrites) [2, 3]	tyrosine hydroxylase (TH) fibers (TH corrected optical density in the caudo-putamen) [2, 3]	mean α-synuclein cell pixel intensity in the substantia nigra ([2]; infusion via osmotic pumps six weeks, compared to transgenic mice treated with PBS)
NCCCNCCCCNCCCN [Spermine, spermine]	more toxic	accelerate	–	–	–	–	–	–
NCCCCNCCCN [spermidine]	–	accelerate	–	–	–	–	–	–
CC(=O)NCC(=O)O.CC(=O)NCC(=O)O.N=C(N)c1ccc(N=NNc2ccc(C(=N)N)cc2)cc1 [Berenil, diminazene aceturate]	–	–	reduces	worsened	increased	worsened; also recorded: decrease	worsened; also recorded: decreased	increased
